According to PubChem BioAssay AID1963837 (Molecular Pharmacology Branch, DTP, NCI, 2024):

System: 843126-344-R-J1-PDC complex spheroid viability
Test: Anticancer human tumor 843126-344-R-J1-PDC patient-derived melanoma cell line growth inhibition [POLQ]
Settings: for IC50: curve of first compound; for viability, T/C: stronger effect = lower value
Method in brief: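 Complex spheroid viability model combining PDC tumour cells with endothelial (HUVEC) and MSC stromal cells. Novobiocin, ART-558 or RP6685 were tested singly and in combination with standard and investigational anticancer drugs. Each was titrated in half-log steps from near clinical Cmax, or from 10 microM where Cmax was unknown.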

[1] = second compound 0.0316 µM, first compound 0.00316 µM
[2] = second compound 0.0316 µM, first compound 0.01 µM
[3] = second compound 0.0316 µM, first compound 0.0316 µM
[4] = second compound 0.0316 µM, first compound 0.1 µM
[5] = second compound 0.0316 µM, first compound 0.316 µM
[6] = second compound 0.0316 µM, first compound 1 µM
[7] = second compound 0.1 µM, first compound 0.00316 µM
[8] = second compound 0.1 µM, first compound 0.01 µM
[9] = second compound 0.1 µM, first compound 0.0316 µM
[10] = second compound 0.1 µM, first compound 0.1 µM
[11] = second compound 0.1 µM, first compound 0.316 µM
[12] = second compound 0.1 µM, first compound 1 µM
[13] = second compound 0.316 µM, first compound 0.00316 µM
[14] = second compound 0.316 µM, first compound 0.01 µM
[15] = second compound 0.316 µM, first compound 0.0316 µM
[16] = second compound 0.316 µM, first compound 0.1 µM
[17] = second compound 0.316 µM, first compound 0.316 µM
[18] = second compound 0.316 µM, first compound 1 µM
[19] = second compound 1 µM, first compound 0.00316 µM
[20] = second compound 1 µM, first compound 0.01 µM
[21] = second compound 1 µM, first compound 0.0316 µM
[22] = second compound 1 µM, first compound 0.1 µM
[23] = second compound 1 µM, first compound 0.316 µM
[24] = second compound 1 µM, first compound 1 µM
[25] = second compound 3.16 µM, first compound 0.00316 µM
[26] = second compound 3.16 µM, first compound 0.01 µM
[27] = second compound 3.16 µM, first compound 0.0316 µM
[28] = second compound 3.16 µM, first compound 0.1 µM
[29] = second compound 3.16 µM, first compound 0.316 µM
[30] = second compound 3.16 µM, first compound 1 µM
[31] = second compound 10 µM, first compound 0.00316 µM
[32] = second compound 10 µM, first compound 0.01 µM
[33] = second compound 10 µM, first compound 0.0316 µM
[34] = second compound 10 µM, first compound 0.1 µM
[35] = second compound 10 µM, first compound 0.316 µM
[36] = second compound 10 µM, first compound 1 µM
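Throughout, for viability, T/C: spheroids exposed to drugs for seven days before readout.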

Compound `COc1cccc(OCCCN)c1-c1cc(Nc2cnc(C#N)cn2)n[nH]1` + Nc1ccc(C#CCN(C(=O)Cc2ncc(C(F)(F)F)cc2C(F)(F)F)c2ccc(F)cc2)nn1 has an IC50 (second compound 0.0316 µM) of 57.8 nM, an IC50 (second compound 0.1 µM) of 85.1 nM and an IC50 (second compound 0.316 µM) of 91.9 nM. The IC50 (second compound 1 µM) was 97.1 nM, the IC50 (second compound 3.16 µM) was 25.6 nM and the IC50 (second compound 10 µM) was 54.2 nM. The viability, T/C [1] was 92%, the viability, T/C [2] was 78.5% and the viability, T/C [3] was 53.1%. It also gave a viability, T/C [4] of 47.3%, a viability, T/C [5] of 40% and a viability, T/C [6] of 35.5%. It also gave a viability, T/C [7] of 91.9%, a viability, T/C [8] of 71.2% and a viability, T/C [9] of 53%. For the same compound, the viability, T/C [10] was 53.9%, the viability, T/C [11] was 45.1% and the viability, T/C [12] was 32.1%. For the same compound, the viability, T/C [13] was 92.9%, the viability, T/C [14] was 72.5% and the viability, T/C [15] was 59.6%. It also gave a viability, T/C [16] of 50%, a viability, T/C [17] of 42.2% and a viability, T/C [18] of 35.1%. The viability, T/C [19] was 89.8%, the viability, T/C [20] was 72.6% and the viability, T/C [21] was 59.6%. It also gave a viability, T/C [22] of 49.2%, a viability, T/C [23] of 43.8% and a viability, T/C [24] of 29.3%. It also gave a viability, T/C [25] of 87.2%, a viability, T/C [26] of 74.6% and a viability, T/C [27] of 44.3%. The viability, T/C [28] was 41.2%, the viability, T/C [29] was 38.6% and the viability, T/C [30] was 38.8%. It also gave a viability, T/C [31] of 84.8%, a viability, T/C [32] of 66.8% and a viability, T/C [33] of 51.9%. The viability, T/C [34] was 45.8%, the viability, T/C [35] was 42.8% and the viability, T/C [36] was 30.4%.
For `Cn1ncnc1[C@H]1c2n[nH]c(=O)c3cc(F)cc(c23)N[C@@H]1c1ccc(F)cc1` + COC1C(OC(N)=O)C(O)C(Oc2ccc3c(O)c(NC(=O)c4ccc(O)c(CC=C(C)C)c4)c(=O)oc3c2C)OC1(C)C, the IC50 (second compound 0.0316 µM) was > 100 nM, the IC50 (second compound 0.1 µM) was > 100 nM and the IC50 (second compound 0.316 µM) was > 100 nM. For the same compound, the IC50 (second compound 1 µM) was > 100 nM, the IC50 (second compound 3.16 µM) was > 100 nM and the IC50 (second compound 10 µM) was > 100 nM. For the same compound, the viability, T/C (second compound 0.0316 µM, first compound 0.000316 µM) was 83.3%, the viability, T/C (second compound 0.0316 µM, first compound 0.001 µM) was 87.8% and the viability, T/C [1] was 108%. The viability, T/C [2] was 106%, the viability, T/C [3] was 97.8% and the viability, T/C [4] was 76.5%. It also gave a viability, T/C (second compound 0.1 µM, first compound 0.000316 µM) of 96.7%, a viability, T/C (second compound 0.1 µM, first compound 0.001 µM) of 103% and a viability, T/C [7] of 93.5%. It also gave a viability, T/C [8] of 91.8%, a viability, T/C [9] of 121% and a viability, T/C [10] of 87.2%. For the same compound, the viability, T/C (second compound 0.316 µM, first compound 0.000316 µM) was 90.1%, the viability, T/C (second compound 0.316 µM, first compound 0.001 µM) was 109% and the viability, T/C [13] was 81.2%. The viability, T/C [14] was 102%, the viability, T/C [15] was 90.3% and the viability, T/C [16] was 94.2%. For the same compound, the viability, T/C (second compound 1 µM, first compound 0.000316 µM) was 89.7%, the viability, T/C (second compound 1 µM, first compound 0.001 µM) was 106% and the viability, T/C [19] was 105%. It also gave a viability, T/C [20] of 84.3%, a viability, T/C [21] of 118% and a viability, T/C [22] of 76.1%. For the same compound, the viability, T/C (second compound 3.16 µM, first compound 0.000316 µM) was 85.1%, the viability, T/C (second compound 3.16 µM, first compound 0.001 µM) was 99.1% and the viability, T/C [25] was 101%. For the same compound, the viability, T/C [26] was 89.9%, the viability, T/C [27] was 120% and the viability, T/C [28] was 94.1%. The viability, T/C (second compound 10 µM, first compound 0.000316 µM) was 83.9%, the viability, T/C (second compound 10 µM, first compound 0.001 µM) was 102% and the viability, T/C [31] was 101%. For the same compound, the viability, T/C [32] was 86.9%, the viability, T/C [33] was 80.9% and the viability, T/C [34] was 81.7%.
For `CCc1cc2c(N3CCc4c(cc(Cn5ccnc5)cc4-c4cn(C)nc4C(F)(F)F)C3=O)cc(C)nc2c(OC)n1` + Cc1cccc(N(C)C(=O)C2C(O)CCN2c2nc(C)cc(C(F)(F)F)c2C#N)c1, the IC50 (second compound 0.0316 µM) was > 10000 nM, the IC50 (second compound 0.1 µM) was > 10000 nM and the IC50 (second compound 0.316 µM) was > 10000 nM. The IC50 (second compound 1 µM) was > 10000 nM, the IC50 (second compound 3.16 µM) was > 10000 nM and the IC50 (second compound 10 µM) was > 10000 nM. The viability, T/C [3] was 90.8%, the viability, T/C [4] was 92.8% and the viability, T/C [5] was 80.9%. It also gave a viability, T/C [6] of 77.7%, a viability, T/C (second compound 0.0316 µM, first compound 3.16 µM) of 72.4% and a viability, T/C (second compound 0.0316 µM, first compound 10 µM) of 61.9%. It also gave a viability, T/C [9] of 99%, a viability, T/C [10] of 88.5% and a viability, T/C [11] of 79%. It also gave a viability, T/C [12] of 79.9%, a viability, T/C (second compound 0.1 µM, first compound 3.16 µM) of 71.5% and a viability, T/C (second compound 0.1 µM, first compound 10 µM) of 64.1%. It also gave a viability, T/C [15] of 94.3%, a viability, T/C [16] of 93.2% and a viability, T/C [17] of 82.4%. It also gave a viability, T/C [18] of 72.3%, a viability, T/C (second compound 0.316 µM, first compound 3.16 µM) of 69.8% and a viability, T/C (second compound 0.316 µM, first compound 10 µM) of 62.3%. For the same compound, the viability, T/C [21] was 85.4%, the viability, T/C [22] was 89.5% and the viability, T/C [23] was 77.3%. It also gave a viability, T/C [24] of 70%, a viability, T/C (second compound 1 µM, first compound 3.16 µM) of 75.5% and a viability, T/C (second compound 1 µM, first compound 10 µM) of 63.8%. For the same compound, the viability, T/C [27] was 90.8%, the viability, T/C [28] was 86% and the viability, T/C [29] was 87.7%. For the same compound, the viability, T/C [30] was 70.9%, the viability, T/C (second compound 3.16 µM, first compound 3.16 µM) was 77.8% and the viability, T/C (second compound 3.16 µM, first compound 10 µM) was 56.8%. The viability, T/C [33] was 92%, the viability, T/C [34] was 79.9% and the viability, T/C [35] was 80%. The viability, T/C [36] was 74.2%, the viability, T/C (second compound 10 µM, first compound 3.16 µM) was 82.5% and the viability, T/C (second compound 10 µM, first compound 10 µM) was 54.4%.
